Measurements from ChEMBL document CHEMBL1201862, “PubChem BioAssay data set” (2004).
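Where inhibition never reached the appropriate level, the endpoint shown equals the highest concentration tested. Otherwise, values were interpolated linearly from a five-concentration, 48-hour dose response in 96-well plates. Here, GI50 denotes the concentration required for 50% inhibition of growth.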 Active and inactive are the calls of the source. Rule as the data show it: active = GI50 up to about 1.1 µM and inactive = higher.

Experiments:
Assay in all cases: inhibition of tumour cell growth, NCI panel, 48 h
HOP-92 = tested on: HOP-92
SK-MEL-2 = tested on: SK-MEL-2
SNB-19 = tested on: SNB-19
IGROV-1 = tested on: IGROV-1
UACC-257 = tested on: UACC-257
OVCAR-5 = tested on: OVCAR-5
M14 = tested on: M14
K562 = tested on: K562
RPMI-8226 = tested on: RPMI-8226
OVCAR-4 = tested on: OVCAR-4
U-251 = tested on: U-251
SF-295 = tested on: SF-295
SR = tested on: SR
NCI-H23 = tested on: NCI-H23
LOX IMVI = tested on: LOX IMVI
SNB-75 = tested on: SNB-75
SK-OV-3 = tested on: SK-OV-3
DU-145 = tested on: DU-145
CCRF-CEM = tested on: CCRF-CEM

Measured: GI50

O=c1[nH]c2nc(S)nc(S)c2[nH]1
inactive: HOP-92 > 100 µM | SK-MEL-2 > 100 µM | SNB-19 > 100 µM | IGROV-1 > 100 µM | UACC-257 > 100 µM | OVCAR-5 > 100 µM | M14 > 100 µM | K562 > 100 µM | RPMI-8226 > 100 µM | OVCAR-4 > 100 µM | U-251 > 100 µM | SF-295 > 100 µM | SR > 100 µM | NCI-H23 > 100 µM | LOX IMVI > 100 µM

O=C1/C(=C/c2ccc(Cl)cc2)Oc2cc(O)ccc21 [6-HYDROXY-4'-CHLORO AURONE]
inactive: SNB-75 31.6 µM | SNB-19 26.6 µM | SK-OV-3 30.6 µM | IGROV-1 33.4 µM | UACC-257 31.2 µM | DU-145 41.4 µM | M14 50.6 µM | K562 19.1 µM | RPMI-8226 30.6 µM | OVCAR-4 47.5 µM | U-251 26.5 µM | SF-295 38.4 µM | SR 20.2 µM | NCI-H23 36.2 µM | CCRF-CEM 20.2 µM

CC1(C)CC(O)CC(C)(C)N1O [TEMPOL HYDROXYLAMINE]
inactive: SNB-75 > 100 µM | SK-MEL-2 > 100 µM | SNB-19 > 100 µM | SK-OV-3 > 100 µM | IGROV-1 > 100 µM | UACC-257 > 100 µM | DU-145 > 100 µM | OVCAR-5 > 100 µM | M14 > 100 µM | K562 > 100 µM | RPMI-8226 > 100 µM | SF-295 > 100 µM | SR > 100 µM | CCRF-CEM > 100 µM

Nc1ccn(C2CC3OCC3O2)c(=O)n1 (stereo not given)
inactive: SNB-75 > 100 µM | SK-MEL-2 > 100 µM | SNB-19 > 100 µM | SK-OV-3 > 100 µM | IGROV-1 > 100 µM | UACC-257 > 100 µM | DU-145 > 100 µM | OVCAR-5 > 100 µM | M14 > 100 µM | K562 > 100 µM | RPMI-8226 > 100 µM | OVCAR-4 > 100 µM | U-251 > 100 µM | SF-295 > 100 µM | SR > 100 µM | NCI-H23 > 100 µM | LOX IMVI > 100 µM | CCRF-CEM > 100 µM

CCn1c2ccccc2c2cc(/N=N\c3ccc(C#N)cc3)ccc21
inactive: HOP-92 25.3 µM | SNB-75 30.4 µM | SK-MEL-2 > 100 µM | SNB-19 19.4 µM | SK-OV-3 40.8 µM | IGROV-1 32.5 µM | UACC-257 58.9 µM | DU-145 62.7 µM | OVCAR-5 31.6 µM | M14 25.9 µM | OVCAR-4 98.6 µM | U-251 29.8 µM | SF-295 32.1 µM | NCI-H23 23.5 µM | LOX IMVI 23.7 µM | CCRF-CEM > 100 µM

O=[N+]([O-])c1ccc(NS(=O)(=O)C(F)(F)F)cc1
inactive: HOP-92 36.6 µM | SNB-75 > 100 µM | SK-MEL-2 > 100 µM | SNB-19 > 100 µM | SK-OV-3 > 100 µM | IGROV-1 85.1 µM | UACC-257 > 100 µM | DU-145 > 100 µM | OVCAR-5 > 100 µM | M14 > 100 µM | OVCAR-4 > 100 µM | U-251 > 100 µM | SF-295 > 100 µM | NCI-H23 > 100 µM | LOX IMVI > 100 µM | CCRF-CEM 92.9 µM

COC(=O)Nc1nc2cc(S(=O)(=O)NC(CC(C)C)C(=O)OC)ccc2[nH]1 (stereo not given)
inactive: HOP-92 2.83 µM | SNB-75 2.44 µM | SK-MEL-2 8.83 µM | SNB-19 2.45 µM | SK-OV-3 4.53 µM | IGROV-1 2.25 µM | DU-145 2.43 µM | OVCAR-5 3.87 µM | M14 1.8 µM | K562 3.06 µM | RPMI-8226 3.28 µM | OVCAR-4 4.83 µM | U-251 4.12 µM | SF-295 1.83 µM | NCI-H23 3.25 µM | LOX IMVI 3.63 µM | CCRF-CEM 3.52 µM

O=C1/C(=C/c2ccc(Cl)cc2)NC(=S)N1CN1CCOCC1
inactive: HOP-92 > 100 µM | SNB-75 > 100 µM | SK-MEL-2 > 100 µM | SNB-19 > 100 µM | SK-OV-3 > 100 µM | IGROV-1 > 100 µM | UACC-257 > 100 µM | DU-145 > 100 µM | OVCAR-5 > 100 µM | M14 > 100 µM | K562 > 100 µM | RPMI-8226 > 100 µM | OVCAR-4 > 100 µM | U-251 > 100 µM | SF-295 > 100 µM | NCI-H23 > 100 µM | LOX IMVI > 100 µM | CCRF-CEM 74 µM

O=C(OCC(Cl)(Cl)Cl)O[C@@H]1CCCC1(c1ccccc1)c1ccccc1
inactive: SNB-75 > 100 µM | SNB-19 > 100 µM | SK-OV-3 > 100 µM | IGROV-1 > 100 µM | UACC-257 67.8 µM | DU-145 > 100 µM | OVCAR-5 > 100 µM | M14 > 100 µM | K562 30.8 µM | OVCAR-4 > 100 µM | U-251 > 100 µM | SF-295 > 100 µM | SR 12.6 µM | NCI-H23 68.1 µM | LOX IMVI 76.7 µM | CCRF-CEM > 100 µM

Cc1nc(C)c(C(=O)NNC(=O)Cc2ccccc2)cc1C(=O)NNC(=O)Cc1ccccc1
inactive: HOP-92 > 100 µM | SNB-75 94 µM | SK-MEL-2 > 100 µM | SNB-19 > 100 µM | SK-OV-3 > 100 µM | IGROV-1 > 100 µM | UACC-257 > 100 µM | DU-145 > 100 µM | OVCAR-5 > 100 µM | M14 > 100 µM | K562 > 100 µM | RPMI-8226 > 100 µM | OVCAR-4 > 100 µM | U-251 > 100 µM | SF-295 > 100 µM | NCI-H23 > 100 µM | LOX IMVI > 100 µM | CCRF-CEM > 100 µM

O=C1c2cc(Cl)ccc2-n2c(noc2=O)C2CSCN12 (stereo not given)
inactive: SNB-75 > 100 µM | SK-MEL-2 > 100 µM | SNB-19 > 100 µM | SK-OV-3 > 100 µM | IGROV-1 > 100 µM | UACC-257 > 100 µM | DU-145 > 100 µM | OVCAR-5 > 100 µM | M14 > 100 µM | K562 55.7 µM | RPMI-8226 > 100 µM | OVCAR-4 > 100 µM | U-251 > 100 µM | SF-295 > 100 µM | SR > 100 µM | LOX IMVI > 100 µM | CCRF-CEM > 100 µM

CC1(C)C(C#N)C1C1=C(N2CCOCC2)[C@]2(C)C(OC(=O)c3ccccc3)CC[C@@H]2C1 (stereo not given in full)
inactive: HOP-92 61.2 µM | SNB-75 20.5 µM | SNB-19 > 100 µM | SK-OV-3 > 100 µM | IGROV-1 > 100 µM | UACC-257 > 100 µM | OVCAR-5 > 100 µM | M14 > 100 µM | K562 38.5 µM | OVCAR-4 > 100 µM | U-251 > 100 µM | SF-295 > 100 µM | SR 61.5 µM | NCI-H23 > 100 µM | CCRF-CEM 31 µM

CSCC[C@H]1C(=O)N=C(N)N1C(=O)OCc1ccccc1
inactive: SNB-75 60.7 µM | SK-MEL-2 > 100 µM | SNB-19 > 100 µM | IGROV-1 63.7 µM | UACC-257 40.6 µM | DU-145 > 100 µM | OVCAR-5 > 100 µM | K562 21.8 µM | RPMI-8226 60 µM | OVCAR-4 46.5 µM | U-251 34.9 µM | SF-295 61.7 µM | SR 17.8 µM | NCI-H23 17.1 µM | LOX IMVI 24.5 µM

O=C1CCC2(c3ccc(Cl)cc3)Nc3ncncc3N12 (stereo not given)
inactive: HOP-92 > 10 µM | SNB-75 > 10 µM | SK-MEL-2 > 10 µM | SNB-19 > 10 µM | SK-OV-3 > 10 µM | IGROV-1 > 10 µM | UACC-257 > 10 µM | DU-145 > 10 µM | OVCAR-5 > 10 µM | M14 > 10 µM | K562 > 10 µM | OVCAR-4 > 10 µM | U-251 > 10 µM | SF-295 > 10 µM | NCI-H23 > 10 µM | LOX IMVI > 10 µM | CCRF-CEM > 10 µM

[N-]=[N+]=NC1(c2ccccc2)C(=O)c2cccc3c4ccccc4n(c23)C1=O (stereo not given)
inactive: SNB-75 > 100 µM | SK-MEL-2 > 100 µM | SNB-19 > 100 µM | SK-OV-3 > 100 µM | IGROV-1 > 100 µM | UACC-257 > 100 µM | DU-145 > 100 µM | OVCAR-5 > 100 µM | M14 > 100 µM | RPMI-8226 45.3 µM | OVCAR-4 > 100 µM | U-251 > 100 µM | SF-295 57.8 µM | NCI-H23 52.2 µM | LOX IMVI > 100 µM | CCRF-CEM 64.3 µM

NNC(=S)NCCNC(=S)NN
inactive: SNB-75 > 100 µM | SK-MEL-2 > 100 µM | SNB-19 > 100 µM | SK-OV-3 > 100 µM | IGROV-1 > 100 µM | UACC-257 > 100 µM | DU-145 > 100 µM | OVCAR-5 > 100 µM | M14 > 100 µM | RPMI-8226 > 100 µM | OVCAR-4 > 100 µM | U-251 > 100 µM | SF-295 > 100 µM | SR > 100 µM | NCI-H23 > 100 µM | LOX IMVI > 100 µM | CCRF-CEM > 100 µM

Oc1ccc(-c2c3c(nc4c2CCc2ccc(Br)cc2-4)-c2cc(Br)ccc2CC3)cc1
inactive: HOP-92 16 µM | SNB-75 23.9 µM | SK-MEL-2 16.8 µM | SNB-19 23.6 µM | SK-OV-3 16.5 µM | IGROV-1 17 µM | UACC-257 27 µM | DU-145 25.1 µM | OVCAR-5 18 µM | M14 23.9 µM | RPMI-8226 26.9 µM | OVCAR-4 22.3 µM | U-251 17.5 µM | SF-295 16.2 µM | NCI-H23 20.3 µM
